Assay results published in paper PMC2212407 (The Journal of Experimental Medicine, 1998).
Read-outs that look alike come from different tables or passages of the source.

How the values were obtained:
Assay type in all cases: cell-based, human
T cell line 024 = test: Proliferation of CD4+ T cell line 024; settings: T cell line 024 initiated on day 71, autologous APCs
[1] = test system: fresh PBMCs from patient 024
[2] = test system: fresh PBMCs from patient 744; test: Proliferation assay of fresh PBMCs from patient 744
[3] = test system: fresh PBMCs from asymptomatic HIV-1+ patients

**Q.** For LRPGGKKQYRLKHIV [p17-3/2], which “Stimulation of T cell line 024, result in words” value (T cell line 024) is on record?
**A.** Its value is “failed to stimulate”.

**Q.** For LRPRGKKRYKLKHIV [p17-3/1], which “Stimulation of T cell line 024, result in words” value (T cell line 024) is on record?
**A.** Its value is “failed to stimulate”.

**Q.** What about the “Proliferative response (SI)” value [1] of the same substance?
**A.** The value was 1.

**Q.** Which results are given for “Tetanus toxoid: the recall antigen tetanus toxoid”?
**A.** Proliferation of fresh PBMCs from patient 744, result in words [2]: showed a response; Mean proliferation (SI) ([3]; Total, 43 patients): 21 ± 65; Mean proliferation (SI) ([3]; patients responding to PHA and tetanus toxoid only (n = 12)): 45 ± 117; Mean proliferation (SI) ([3]; patients responding to PHA, tetanus toxoid, and HIV antigens (n = 12)): 31 ± 32
